In patent US8163793B2, “Proline derivatives” (Hoffman-La Roche Inc., priority 2009, dated 2012):

Legend:
[1] = target: Cathepsin S (UniProt P25774); test: Cathepsin enzyme inhibition assay (fluorogenic peptide substrate Z-Val-Val-Arg-AMC), Cathepsin S; type: biochemical, human and mouse; conditions: enzyme 1 nM, substrate 20 μM, pH 6.5; read-out: CatS IC50
Procedure, shortened: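 Human or mouse cathepsin S (1 nM) was run in 100 mM potassium phosphate pH 6.5 with 5 mM EDTA, 0.001% Triton X-100 and 5 mM DTT. The rise in AMC fluorescence from cleavage was measured, and IC50 values were calculated by standard methods and expressed in μM.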

[2] = target: Cat L (UniProt P07711); test: Cathepsin enzyme inhibition assay (fluorogenic peptide substrate Z-Val-Val-Arg-AMC), Cathepsin L; type: biochemical, human and mouse; conditions: enzyme 1 nM, substrate 20 μM, pH 6.5; read-out: CatL IC50
Procedure, shortened: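 Cathepsin L at 1 nM was mixed with compound, then started with 20 μM Z-Val-Val-Arg-AMC in pH 6.5 potassium phosphate with EDTA, Triton X-100 and 5 mM DTT. AMC fluorescence (ex 360/em 465 nm) was followed over 20 min. IC50 is given in μM.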

Compound | IC50 [1] [nM] | IC50 [2] [nM]
N#CC1(NC(=O)[C@@H]2C[C@@H](S(=O)(=O)c3ccccc3Cl)CN2C(=O)c2n[nH]c3cc(Cl)ccc23)CC1 [Example 410, (2S,4R)-4-(2-Chloro-benzenesulfonyl)-1-(6-chloro-1H-indazole-3-carbonyl)-pyrrolidine-2-carboxylic acid (1-cyano-cyclopropyl)-amide] | 4.8 | 29700
N#CC1(NC(=O)[C@@H]2C[C@@H](S(=O)(=O)c3ccccc3Cl)CN2C(=O)[C@H](O)c2ccc(Cl)cc2)CC1 [Example 411, (2S,4R)-4-(2-Chloro-benzenesulfonyl)-1-[(R)-2-(4-chloro-phenyl)-2-hydroxy-acetyl]-pyrrolidine-2-carboxylic acid (1-cyano-cyclopropyl)-amide] | 0.525 | 550
CC(C)(C)OC(=O)N[C@@H](C(=O)N1C[C@H](S(=O)(=O)c2ccccc2Cl)C[C@H]1C(=O)NC1(C#N)CC1)c1ccc(Cl)cc1 [Example 412, [(R)-2-[(2S,4R)-4-(2-Chloro-benzenesulfonyl)-2-(1-cyano-cyclopropylcarbamoyl)-pyrrolidin-1-yl]-1-(4-chloro-phenyl)-2-oxo-ethyl]-carbamic Acid Tert-butyl ester] | 2.75 | 785
Cc1csc(C2(C(=O)N3C[C@H](S(=O)(=O)c4ccccc4Cl)C[C@H]3C(=O)NC3(C#N)CC3)CC2)n1 [Example 413, (2S,4R)-4-(2-Chloro-benzenesulfonyl)-1-[1-(4-methyl-thiazol-2-yl)-cyclopropanecarbonyl]-pyrrolidine-2-carboxylic acid (1-cyano-cyclopropyl)-amide] | 0.31 | 1100
N#CC1(NC(=O)[C@@H]2C[C@@H](S(=O)(=O)c3ccccc3Cl)CN2C(=O)Cc2ncc(Cl)cn2)CC1 [Example 414, (2S,4R)-4-(2-Chloro-benzenesulfonyl)-1-[2-(5-chloro-pyrimidin-2-yl)-acetyl]-pyrrolidine-2-carboxylic acid (1-cyano-cyclopropyl)-amide] | 0.295 | 5450
Cc1cc(N2C[C@H](S(=O)(=O)c3ccc(N4CC(F)(F)C4)cc3C(F)(F)F)C[C@H]2C(=O)NC2(C#N)CC2)n(C2CCC2)n1 [Example 415, (2S,4R)-1-(2-Cyclobutyl-5-methyl-2H-pyrazol-3-yl)-4-[4-(3,3-difluoro-azetidin-1-yl)-2-trifluoromethyl-benzenesulfonyl]-pyrrolidine-2-carboxylic acid (1-cyano-cyclopropyl)-amide] | 0.215 | 11700
Cc1cc(N2C[C@H](S(=O)(=O)c3ccc(-n4cccn4)cc3C(F)(F)F)C[C@H]2C(=O)NC2(C#N)CC2)n(C2CCC2)n1 [Example 416, (2S,4R)-1-(2-Cyclobutyl-5-methyl-2H-pyrazol-3-yl)-4-(4-pyrazol-1-yl-2-trifluoromethyl-benzenesulfonyl)-pyrrolidine-2-carboxylic acid (1-cyano-cyclopropyl)-amide] | 0.338 | 21400
N#CC1(NC(=O)[C@@H]2C[C@@H](S(=O)(=O)c3ccccc3Cl)CN2C(=O)[C@H](N)c2ccc(Cl)cc2)CC1 [Example 417, (2S,4R)-1-[(R)-2-Amino-2-(4-chloro-phenyl)-acetyl]-4-(2-chloro-benzenesulfonyl)-pyrrolidine-2-carboxylic acid (1-cyano-cyclopropyl)-amide] | 2.45 | 55.5
Cc1cc(N2C[C@H](S(=O)(=O)c3ccccc3Cl)C[C@H]2C(=O)NC2(C#N)CC2)n(Cc2ccc(Cl)cc2)n1 [Example 418, (2S,4R)-4-(2-Chloro-benzenesulfonyl)-1-[2-(4-chloro-benzyl)-5-methyl-2H-pyrazol-3-yl]-pyrrolidine-2-carboxylic acid (1-cyano-cyclopropyl)-amide] | 4 | 1620

Now from value to molecule:

IC50 [1] [nM] | IC50 [2] [nM] | Compound
0.415 | 16900 | Cc1cc(N2C[C@H](S(=O)(=O)c3ccc(-c4ccncn4)cc3C(F)(F)F)C[C@H]2C(=O)NC2(C#N)CC2)n(C2CCC2)n1 [Example 419, (2S,4R)-1-(2-Cyclobutyl-5-methyl-2H-pyrazol-3-yl)-4-(4-pyrimidin-4-yl-2-trifluoromethyl-benzenesulfonyl)-pyrrolidine-2-carboxylic acid (1-cyano-cyclopropyl)-amide]
0.395 | 14000 | Cc1cc(N2C[C@H](S(=O)(=O)c3ccc(-c4ccnn4C)cc3C(F)(F)F)C[C@H]2C(=O)NC2(C#N)CC2)n(C2CCC2)n1 [Example 420, (2S,4R)—N-(1-cyanocyclopropyl)-1-(1-cyclobutyl-3-methyl-1H-pyrazol-5-yl)-4-(4-(1-methyl-1H-pyrazol-5-yl)-2-(trifluoromethyl)phenylsulfonyl)pyrrolidine-2-carboxamide]
11.5 | 4950 | N#CC1(NC(=O)[C@H]2CC(S(=O)(=O)c3ccccc3Cl)CN2C(=O)C(NCC(F)(F)F)c2ccc(Cl)cc2)CC1 (stereo partly drawn) [Example 421, (R)-4-(2-Chloro-benzenesulfonyl)-1-[2-(4-chloro-phenyl)-2-(2,2,2-trifluoro-ethylamino)-acetyl]-pyrrolidine-2-carboxylic acid (1-cyano-cyclopropyl)-amide]
1.85 | 4360 | N#CC1(NC(=O)[C@@H]2C[C@@H](S(=O)(=O)c3ccccc3Cl)CN2C(=O)Cn2ccc(C(F)(F)F)n2)CC1 [Example 422, (2S,4R)-4-(2-Chloro-benzenesulfonyl)-1-[2-(3-trifluoromethyl-pyrazol-1-yl)-acetyl]-pyrrolidine-2-carboxylic acid (1-cyano-cyclopropyl)-amide]
1470 | ≥ 25000 | N#CC1(NC(=O)[C@@H]2C[C@@H](S(=O)(=O)CC3CC3)CN2C(=O)C2(C(F)(F)F)CC2)CC1 [Example 423, (2S,4R)-4-Cyclopropylmethanesulfonyl-1-(1-trifluoromethyl-cyclopropanecarbonyl)-pyrrolidine-2-carboxylic acid (1-cyano-cyclopropyl)-amide]
410 | ≥ 25000 | N#CC1(NC(=O)[C@@H]2C[C@@H](S(=O)(=O)CC3CC3)CN2C(=O)C2(c3ccc(Cl)cc3)CC2)CC1 [Example 424, (2S,4R)-1-[1-(4-Chloro-phenyl)-cyclopropanecarbonyl]-4-cyclopropylmethanesulfonyl-pyrrolidine-2-carboxylic acid (1-cyano-cyclopropyl)-amide]
0.26 | 335 | N#CC1(NC(=O)[C@@H]2C[C@@H](S(=O)(=O)c3ccccc3Cl)CN2C(=O)C2(c3ccc(F)cc3)CC2)CC1 [Example 425, (2S,4R)-4-(2-chlorophenylsulfonyl)-N-(1-cyanocyclopropyl)-1-(1-(4-fluorophenyl)-cyclopropanecarbonyl)pyrrolidine-2-carboxamide]
0.47 | 45 | N#CC1(NC(=O)[C@@H]2C[C@@H](S(=O)(=O)c3ccccc3Cl)CN2C(=O)C2(c3ccc(Br)cc3)CC2)CC1 [Example 426, (2S,4R)-1-(1-(4-bromophenyl)cyclopropanecarbonyl)-4-(2-chlorophenylsulfonyl)-N-(1-cyanocyclopropyl)pyrrolidine-2-carboxamide]
0.51 | 95 | N#CC1(NC(=O)[C@@H]2C[C@@H](S(=O)(=O)c3ccccc3Cl)CN2C(=O)C2(c3ccc(C(F)(F)F)cc3)CC2)CC1 [Example 427, (2S,4R)-4-(2-chlorophenylsulfonyl)-N-(1-cyanocyclopropyl)-1-(1-(4-(trifluoromethyl)phenyl)cyclopropanecarbonyl)pyrrolidine-2-carboxamide]
